Measurements reported in patent US4092420A, “Novel soft N-chloroamino alcohol derivatives exhibiting antibacterial activity” (INTERx Research Corporation, priority 1977, dated 1978).

Tests used:
[1] = prior art; cited from earlier work
K. pneumoniae [2] = experiment: Contact germicidal efficiency (sterilization time); type: cell-based, Klebsiella pneumoniae; settings: Example Z, pH 4.6, absence of horse serum, IV j 79 ppm (21 PPMCl+), IV k 5800 (1057), IV l 1112 (209)
Description: (§1) CONTACT GERMICIDAL EFFICIENCY OF N-CHLORAMINES AS A FUNCTION
(§2) ^a Time intervals screened 0.5, 1, 2, 3, 4 and 5 minutes.
(§3) ^a Time intervals screened 0.5, 1, 2, 3, 4, 5, 6, 7, 8, 9 and 10
(§4) ^a Time intervals screened 0.5, 1, 2, 3, 4, and 5 minutes.
(§5) ^b Time intervals screened 0.5, 1, 2, 3, 4, 5, 6, 7, 8, 9 and 10
(§6) Immediately preceding the screen, the compound is weighed and diluted with a buffer or other solvent to give the final concentration desired. The buffer or solvent chosen depends on the conditions of the screen and could be one of the following: 0.1 M NaOAc, pH 4.6; 0.1 M NaH2 PO4, pH 7.0; 0.1 M Na2 B4 O7, pH 8.8; 35% methanol in one of the aforementioned buffers; 10% Triton × 100 in buffer, etc.
(§7) The positive chlorine concentration of the test solution is then determined iodometrically.
(§8) Media used for the Screen are Nutrient Broth, BBL# 11479 and Nutrient Agar, BBL# 11472 prepared according to label directions. The broth is dispensed in 75 ml amounts of flasks for overnight cultures and in 5 ml amounts to culture tubes for subculturing during the Screen. Agar plates are prepared as usual.
(§9) Overnight cultures are prepared by inoculating from stock cultures into the 75 ml flasks of nutrient broth and incubating for 15 hours at 37° C.
(§10) The iodometrically characterized test solution is dispensed in 5 ml amounts to seven small stoppered flasks. The organisms are screened one at a time as follows:
(§11) A 0.2 ml portion of the overnight culture is inoculated into 5 ml of 0.9% NaCl for use in controls. A 0.2 ml portion of the overnight culture is inoculated into a flask containing 5 ml of the test solution, an automatic timer is simultaneously triggered and the solution mixed. At time intervals of 30 seconds, 1, 2, 3, 4, 5, 6, 7, 8, 9, and 10 minutes a loopful of the inoculated solution is subcultured into 5 ml of sterile nutrient broth and mixed by a Vortex Genie Mixer, the high dilution serving to stop the action of the compound. At the end of the ten minute screen, the entire procedure is repeated for each of the remaining six organisms. All of the subculture tubes are incubated at 37° C and checked for signs of growth by turbidity at 24 hr., 48 hr., 3, 5, and 7 days. The earliest subculture time at which no growth is present in the subculture tube is considered the endpoint and is recorded as that time, e.g., 7 minutes.
(§12) The test solution is prepared and characterized as above but is made up at twice the concentration desired. The solution is diluted 1:1 with Rehydrated Tissue Culture Dessicated Horse Serum, Difco #5357-72 and dispensed in a 5 ml amount to a small flask. The mixture is incubated at Room Temperature for 30 minutes to allow denaturation of the compound by the serum and then screened as above.
(§13) The 5 ml mixture of serum and test solution are prepared in sequence to allow as close to 30 minutes as possible before the beginning of the screen of each organism.
(§14) Bacteria: Staphylococcus aureas Smith (or 209), Escherichia coli AB 1932-1, 1100/B22 and Vogel, Streptococcus pyogenes C203 Salmonella typhimurium 14028, Bacillus subtilis 6051-1, Klebsiella pneumoniae 10031, Pseudomonas aeruginosa 9027, Bordetella bronchiseptica 4617 and Staphylococcus epidermidis 12228.

P. aeruginosa [3] = experiment: Contact germicidal efficiency (sterilization time); type: cell-based, Pseudomonas aeruginosa; settings: Example Z, pH 4.6, absence of horse serum, IV j 79 ppm (21 PPMCl+), IV k 5800 (1057), IV l 1112 (209)
Description: as §1, §2, §3, §4, §5, §6, §7, §8, §9, §10, §11, §12, §13, §14

S. epidermidis = experiment: Contact germicidal efficiency (sterilization time); type: cell-based, Staphylococcus epidermidis; settings: Example Z; S. pidermidis; pH 4.6; absence of horse serum; IV j 79 ppm (21 PPMCl+), IV k 5800 (1057), IV l 1112 (209)
Description: as §1, §2, §3, §4, §5, §6, §7, §8, §9, §10, §11, §12, §13, §14

B. bronchiseptica = experiment: Contact germicidal efficiency (sterilization time); type: cell-based, Bordetella bronchiseptica; settings: Example Z, pH 4.6, absence of horse serum, IV j 79 ppm (21 PPMCl+), IV k 5800 (1057), IV l 1112 (209)
Description: as §1, §2, §3, §4, §5, §6, §7, §8, §9, §10, §11, §12, §13, §14

S. aureus = experiment: Minimal inhibitory concentration (MIC), Example V; type: cell-based; settings: Staphylococcus aureus
Description: (§15) THE ANTIBACTERIAL SCREEN - EXAMPLE V
(§16) THE ANTIBACTERIAL SCREEN - EXAMPLES W - Z (Autotiter IV)
(§17) (a) Compounds. All compounds to be screened are weighed (approx. 10 mg) on the day preceding the test date. Each compound is solubilized on the day of assay in appropriate solvent and diluted automatically in the Autotiter IV with distilled water (buffer can be employed here also).
as §14
(§18) (c) Inocula. Prior to utilization in the Autotiter IV, all bacteria are cultured for 18-20 hr. (37° C) in tryptose phosphate broth (TP), except, S. pyogenes C203, which is cultured in Brain Heart Infusion broth plus 10% normal horse serum. Immediately prior to testing, each culture is adjusted to an optical density of 0.10 (650 nm), employing a Bausch & Lomb Spectronic 20, and diluted subsequently into double strength medium to approximately 2 × 10^5 viable organisms per ml.
(§19) 1. An automated injector system dispenses 0.05 ml of diluent (sterile H2 O or buffer) to all cups of the autotiter trays from rows 2 through 7.
(§20) 2. The loops (for sequential dilutions of the compounds are moistened by immersion into 70% ethyl alcohol. After removal of excess alcohol by blotting, the loops are moved to the first row of cups in the autotray containing 0.10 ml of the compound to be diluted and tested (usually, this initial concentration is 500 to 1000 mcg/ml, but can be varied upward or downward). The loops are lowered and sequentially transfer the diluted solutions of the compound through row 7.
(§21) Immediately after each dilution is made, each cup is automatically inoculated with 0.05 ml of the appropriate test organism. This inoculation derives from a second injector system containing the organism in double-strength medium. The total operation consists of the automatic dilution of a single compound in each of 8 rows of the Autotiter try.
(§22) After these operations, we reverse the tray and a second compound is diluted over the other one-half of the tray and inoculated, subsequently, with 8 organisms. Thus, for each Autotiter Tray, two compounds are screened against 8 different organisms at dilutions ranging from 1:2 to 1:128.
(§23) (e) Incubation. The inoculated Autotiter trays are incubated at 37° C for 18 - 20 hr. At the end of this period, each tray is examined for the presence or absence of growth (turbidity). The lowest concentration of the compound inhibiting growth is recorded as the minimal inhibitory concentration (MIC).

P. aeruginosa [4] = experiment: Minimal inhibitory concentration (MIC), Example V; type: cell-based; settings: Pseudomonas aeruginosa
Description: as §15, §16, §17, §14, §18, §19, §20, §21, §22, §23

C. albicans = experiment: Minimal inhibitory concentration (MIC), Example V; type: cell-based; settings: Candida albicans
Description: MINIMAL INHIBITORY CONCENTRATION OF 2-AMINO-2-METHYL-1-PROPYL […]
as §15

K. pneumoniae [5] = experiment: Minimal inhibitory concentration (MIC), Example V; type: cell-based; settings: Klebsiella pneumoniae
Description: (§24) MINIMAL INHIBITORY CONCENTRATION OF 2-AMINO-2-METHYL-1-PROPYL
(§25) ^a Minimal inhibitory concentration expressed in parts per million
(§26) sequence inhibited the test organism at the higher concentrations.
as §15
Klebsiella pneumoniae ATCC# 10031
as §16, §17, §14, §18, §19, §20, §21, §22, §23

[6] = Solubility in 30% methanol: 0.1 M sodium dihydrogen phosphate, pH 7.0; type: physicochemical; settings: 0.1 m nah2po4, pH 7, organic solvent or mixture, Concentration (footnote: Solubility in 30% methanol: 0.1 M sodium dihydrogen phosphate, pH 7.0)
E. coli = experiment: Minimal inhibitory concentration (MIC), Example V; type: cell-based; settings: Escherichia coli
Description: as §24, §25, §26, §15

A. niger = experiment: Minimal inhibitory concentration (MIC), Example V; type: cell-based; settings: Aspergillus niger
Description: as §24, §25, §26, §15

T. mentagrophytes = experiment: Minimal inhibitory concentration (MIC), Example V; type: cell-based; settings: Trichophyton mentagrophytes
Description: as §24, §25, §26, §15

S. pyogenes = experiment: Minimal inhibitory concentration (MIC), Example V; type: cell-based; settings: Streptococcus pyogenes

| Compound | Deactivation by denaturing agents (e.g., horse serum) [1] | Sterilization Time (K. pneumoniae [2]) [min] | Sterilization Time (P. aeruginosa [3]) [min] | Sterilization Time (S. epidermidis) [min] | Sterilization Time (B. bronchiseptica) [min] | MIC (S. aureus) [µg/mL] | MIC (P. aeruginosa [4]) [µg/mL] | MIC (C. albicans) [µg/mL] | MIC (K. pneumoniae [5]) [µg/mL] | solubility [6] [µg/mL] | MIC (E. coli) [µg/mL] | MIC (A. niger) [µg/mL] | MIC (T. mentagrophytes) [µg/mL] | MIC (S. pyogenes) [µg/mL] |
| --- | --- | --- | --- | --- | --- | --- | --- | --- | --- | --- | --- | --- | --- | --- |
| ClNCl [NHCl2] | readily deactivated | – | – | – | – | – | – | – | – | – | – | – | – | – |
| CC(C)(COC(=O)c1cccnc1)N(Cl)Cl [IV j, 2-N,N-Dichloroamino-2-methyl-1-propyl nicotinate] | – | 1 | 2 | 3 | 4 | – | – | – | – | – | – | – | – | – |
| CCCCCC(=O)OCC(C)(C)N.Cl [III d, 2-Amino-2-methyl-1-propyl hexanoate hydrochloride] | – | – | – | – | – | > 62.5 | 62.5 | > 62.5 | > 62.5 | 1040 | > 62.5 | > 62.5 | > 62.5 | 62.5 |
| C[n+]1cccc(C(=O)OCC(C)(C)N(Cl)Cl)c1 [IV l, 2-N,N-Dichloroamino-2-methyl-1-propyl nicotinate methylfluorosulfonate] | – | 5 | 3 | 3 | 5 | – | – | – | – | – | – | – | – | – |
| CCCC(=O)OCC(C)(C)N.Cl [III b, 2-Amino-2-methyl-1-propyl butyrate hydrochloride] | – | – | – | – | – | > 62.5 | > 62.5 | > 62.5 | > 62.5 | 1070 | > 62.5 | > 62.5 | > 62.5 | > 62.5 |
